Measured values from patent US7892767B2, “Phosphospecific chemokine receptor antibodies” (Washington University in St. Louis, priority 2005, dated 2011).

Tests used:
[1] = target: CXCR4 (Homo sapiens, UniProt P61073); assay: Stimulated CXCR4 phosphorylation in LN428 GBM cells (western blot); type: cell-based; set-up: lysates from the glioblastoma cell line LN428, which is known to express high levels of CXCR4; endogenous in cells; host or cells: LN428 GBM cell line
Experimental: Cell Culture, transfections and stimulation of CXCR4 phosphorylation. The U87 glioblastoma multiforme (GBM, grade IV) cell line was obtained from the American Type Culture Collection. The LN428 GBM cell line was a kind gift of Dr Erwin van Meir (Winship Cancer Center, Emory University, Atlanta, Ga.). U87 cells were grown in minimum essential a media supplemented with 10% fetal bovine serum ((FBS), Biomedia, Foster City, Calif.). LN428 cells were grown in DMEM (Fisher, Pittsburgh, Pa.) supplemented with 10% horse serum (Sigma). All cells were grown in the presence of penicillin-streptomycin. The coding sequence for human CXCR4 was obtained by high fidelity RT-PCR (Superscript III Platinum, Invitrogen), and cloned into the expression vector pMSCVneo (Clontech, Palo Alto, Calif.). Transfections were performed with 0.3 μg of plasmid DNA in 20 μl Lipofectamine (Invitrogen)/35 mm^2 tissue culture dish for 9 hours according to the manufacturer's instructions. Cells recovered in Optimem supplemented with 10% FBS. Transfected and non-transfected cells were placed in serum free media for 24 hours prior to treatment with agents to stimulate CXCR4 phosphorylation. Treatment was usually for 0 or 10 minutes with 1 μg/ml CXCL12 (Peprotech, Rocky Hill N.J.), 4 μM 4-Phorbol 12-myristate 13-acetate (PMA) or 10 nM EGF. In some experiments, CXCL12 was washed away and cells were incubated for an additional 20 minutes in serum free media alone.
Western Blot Analysis. Whole-cell extracts were obtained by lysing cells with lysis buffer (20 mM Tris pH 7.4, 137 mM NaCl, 10% Glycerol and 1% Triton X-100) supplemented with phosphatase inhibitor cocktail set II (Calbiochem, La Jolla, Calif.) and protease inhibitors PMSF (1 mM), leupeptin (0.005 mg/ml) and aprotonin (0.005 mg/ml). The proteins (50-75 μg) were resolved with 10% Bis-Tris gels (Invitrogen) and transferred onto the nitrocellulose membrane Hybond ECL (Amersham, Piscataway, N.J.) according to standard protocols. Polyclonal anti-CXCR4 antibody was used at a 1:500 dilution and P338-CXCR4 and P339-CXCR4 directed antibodies were used at 1:100 dilutions overnight at 4° C. This was followed by incubation with horseradish peroxidase-conjugated secondary antibody (1:15,000; Bio-Rad). Peroxide activity was detected using the enhanced chemiluminescence Supersignal West Dura system (Pierce, Rockford, Ill.). Mouse anti-actin antibody at a concentration of 1:1500 was used as a loading control. Peptide competitions and lambda phosphatase treatment were performed as described above.
The utility of these antibodies for evaluating the relationship between ligand binding and CXCR4 function is dependent upon their ability to distinguish a ligand activated form of the receptor. Serum starvation increased CXCL12 responsiveness (data not shown), and for all of these experiments LN428 GBM cells were serum starved for 24 hours prior to CXCL12 treatment. Serum starved LN428 cells were treated with 1 μg/ml CXCL12 for 0 or 10 minutes and the abundance of phospho-CXCR4 was determined by western blot and immuno-localization in fixed cells. […] A similar CXCL12-induced increase in P339-CXCR4 (FIG. 3B), but not P338-CXCR4 (data not shown) immunoreactivity was seen by immunofluorescent analysis of paraformaldehyde fixed cells. After 10 minutes of exposure to CXCL12, P339-CXCR4 can be seen localized to the surface of LN428 cells (FIG. 3B). CXCL12 was then washed away and cells were incubated in its absence for an additional 20 minutes. Surface labeling declined as a function of time and P339-CXCR4 was seen accumulating intracellularly.
Whether this is the only kinase that can phosphorylate these residues is unclear. The observation that protein kinase C (PKC) stimulated CXCR4 internalization also depends upon phosphorylation of this region of the molecule raises the question of whether these sites might also be PKC phosphorylation sites (17, 19, 27, 28). […]

[2] = test system: Nf1−/− astrocytes; assay: Cell number by trypan blue exclusion, Nf1−/− astrocytes; type: cell-based, mouse; settings: data not shown
Experimental: (§1) Culture and treatment of primary astrocytes. Primary cultures of astrocytes were prepared from post-natal day two Nf1^flox/flox mice as previously described (134) and in accordance with established Animal Studies Protocols at Washington University School of Medicine. Cultures were infected with adenovirus containing either Cre recombinase (Nf1−/−) or LacZ (Nf1+/+). Primary cultures of astrocytes were grown under standard adherent conditions in serum free media (DMEM/F12 or Neurobasal (Gibco-BRL)) in the presence or absence of 0.1 μg/ml CXCL12 (Peprotech) and 10 μM Forskolin for 24 hours, as indicated. Cell number was determined after 24 hours by trypan blue exclusion and the growth effects of CXCL12 were derived as follows: ((cell number in the presence of CXCL12—cell number cell in the absence of CXCL12)/cell number in the absence of CXCL12)×100.)
(§2) To determine the biological significance of CXCR4 activation to NF1 glioma biology, we next sought to evaluate the regulation of CXCL12 growth effects by neurofibromin in astrocytes. While the true cell of origin of astrocytomas remains unknown, we utilized primary cultures of cortical astrocytes as a model of a normal counterpart to astrocytoma cells. Astrocytes were derived from Nf1^flox/flox mice and rendered Nf1+/+ or Nf1−/− by infection with adenovirus encoding LacZ or Cre recombinase, respectively.

[3] = test system: Nf1+/+ astrocytes; assay: Cell number by trypan blue exclusion, Nf1+/+ astrocytes; type: cell-based, mouse; settings: data not shown
Experimental: as §1, §2

[4] = test system: Nf1−/− astrocytes; assay: Intracellular cAMP by ELISA, Nf1−/− astrocytes; type: cell-based, mouse
Experimental: (§3) cAMP measurements. cAMP was measured by ELISA (Cayman Chemical Company, Ann Arbor, Mich. or Assay Designs, Ann Arbor, Mich.). Briefly, astrocyte cultures were lysed in 0.1 N HCl. After the removal of cellular debris, soluble cellular extract was dried down and resuspended in EIA buffer. Experimental samples and cAMP standard curve were acetylated to increase the sensitivity of the assay and incubated with cAMP ACHe tracer and cAMP EIA anti-serum overnight at 4° C. according to the manufacturer's instructions. After extensive washing, bound antibody was measured by spectrophotometric analysis. Concentrations of cAMP were derived from comparison with standard curve according to manufacturer's instructions.
(§4) We evaluated the time dependent changes in intracellular cAMP in Nf1+/+ and Nf1−/− astrocytes after exposure to 0.1 μg/ml CXCL12. […] However, in Nf1+/+ astrocytes, intracellular levels of cAMP rapidly recovered to baseline and oscillated between baseline and 40% of baseline over the 45-minute experimental period (FIG. 10B).
(§5) We hypothesized that if cooperative signaling between Nf1 loss and CXCR4 activation promotes tumor formation through the suppression of cAMP, then agents that alter intracellular cAMP should modulate CXCL12 responses. We treated astrocytes with the adenylyl cyclase (AC) activator forskolin in the presence and absence of CXCL12. […] In these experiments, forskolin elevated intracellular cAMP levels in both Nf1+/+ and Nf1−/− astrocytes with peak values of 17.8+/−0.4 and 19.4+/−4.5 pmol/mg of protein, respectively, after 24 hours of treatment. The effect of forskolin was not abrogated by co-treatment with CXCL12. Under these conditions, cAMP levels were 17.9+/−2.5 and 10.4+/−5.8 pmol/mg of total protein in Nf1+/+ and Nf1−/− astrocytes, respectively. […] The effect of forskolin on CXCL12-mediated Nf1−/− apoptosis was evidenced by changes in the percentage of Nf1−/− astrocytes in the sub-G0 fraction of the cell cycle (FIG. 11B). Thus while astrocyte growth is dependent upon MEK and PI3 kinase activity, CXCL12-induced Nf1−/− astrocyte growth requires the suppression of intracellular cAMP levels.

[5] = test system: Nf1+/+ astrocytes; assay: Intracellular cAMP by ELISA, Nf1+/+ astrocytes; type: cell-based, mouse
Experimental: as §3, §4, §5

[6] = test system: U87 GBM xenografts; settings: systemic delivery, reference (3); cited from earlier work
[7] = test system: Daoy xenografts; settings: systemic delivery, reference (3); cited from earlier work
[8] = reference (94), cited from earlier work
[9] = 1 μg/ml CXCL12, 4 μM PMA or 10 nM EGF
[10] = forskolin 10 μM co-treatment with CXCL12 0.1 μg/ml

Sequence of CXCR4 (P61073 whole entry): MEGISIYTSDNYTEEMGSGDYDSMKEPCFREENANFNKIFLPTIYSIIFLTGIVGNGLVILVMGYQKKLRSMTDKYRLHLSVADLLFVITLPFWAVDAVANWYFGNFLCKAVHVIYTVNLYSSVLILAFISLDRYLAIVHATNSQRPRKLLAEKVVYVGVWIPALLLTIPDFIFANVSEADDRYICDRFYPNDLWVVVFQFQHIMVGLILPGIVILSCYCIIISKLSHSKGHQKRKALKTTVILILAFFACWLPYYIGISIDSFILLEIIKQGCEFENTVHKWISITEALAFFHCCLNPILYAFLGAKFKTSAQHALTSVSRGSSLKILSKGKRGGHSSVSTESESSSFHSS

## CCCCCCCCCCCCCC(=O)O[C@@H]1[C@@H](C)[C@@]2(O)[C@@H](C=C(CO)C[C@]3(O)C(=O)C(C)=C[C@@H]23)[C@@H]2C(C)(C)[C@]12OC(C)=O [PMA, 4-Phorbol 12-myristate 13-acetate]
[1]; [9]
  P338 phosphorylation stimulated: not
  P339 phosphorylation: stimulated
[1]; 4 μM PMA or 10 nM EGF
  P339-CXCR4 immunoreactivity compared with response to CXCL12: greater

## COc1cccc(-c2cc(=O)c3ccccc3o2)c1N [PD98059]
[2]
  astrocyte growth: prevented growth
[3]
  astrocyte growth: prevented growth

## C=C[C@@]1(C)CC(=O)[C@]2(O)[C@@]3(C)[C@@H](O)CCC(C)(C)[C@@H]3[C@H](O)[C@H](OC(C)=O)[C@@]2(C)O1 [forskolin]
[4]; [10]
  cAMP levels: 10.4+/−5.8 pmol/mg of total protein
[4]; forskolin 10 μM, 24 hours
  peak intracellular cAMP: 19.4+/−4.5 pmol/mg of protein
[5]; [10]
  cAMP levels: 17.9+/−2.5 pmol/mg of total protein
[5]; forskolin 10 μM, 24 hours
  peak intracellular cAMP: 17.8+/−0.4 pmol/mg of protein

## c1cc(CN2CCCNCCNCCCNCC2)ccc1CN1CCCNCCNCCCNCC1 [AMD 3100]
[6]
  intracranial growth of glioblastoma xenografts: blocked the intracranial growth
[7]
  intracranial growth of medulloblastoma xenografts: blocked the intracranial growth
[8]; sustained dosing over a 10 day period
  toxicities: mild toxicities
[8]; throughout an 18 day follow-up period after cessation
  white blood cell counts: elevations of white blood cell counts
